Consider four compounds from US12221432B2, “Estrogen receptor antagonist” (CHIA TAI TIANQING PHARMACEUTICAL GROUP CO., LTD., priority 2018, dated 2025).

Counter-ions that a name gives are not always drawn.

One data set concerns MCF-7 cells. Put plainly: MCF-7 cell proliferation inhibition. It is filed as cell-based. Particulars: 6 days incubation, CellTiter-Glo; read-out: IC50 for MCF-7 cell proliferation inhibition. The protocol: EMEM medium was purchased from Wisent, and fetal bovine serum was purchased from Biosera. Promega CellTiter-Glo reagent. MCF-7 cells were purchased from the Cell Bank of Type Culture Collection Committee of the Chinese Academy of Sciences. Nivo5 multi-marker analyzer (PerkinElmer).
MCF-7 cells were seeded in a white 384-well plate at 600 cells/[…] suspension/well. The plate was incubated in a CO2 incubator overnight.
On the day of treatment, a day 0 plate coated under the same conditions the day before was taken, centrifuged to remove the medium, added with 25 microliters of Promega CellTiter-Glo reagent to each well, and incubated at room temperature for 10 minutes to stabilize the luminescence signal. Measures were read by PerkinElmer Nivo multi-marker analyzer as an initial value for 0% inhibition.
The test compounds were serially 5-fold diluted to the 10th concentration with a multichannel pipette, i.e., from 2 millimoles to […], and the experiments were set up in duplicate. 47.5 microliters of medium was added to the intermediate plate, 2.5 microliters of serially diluted compounds were transferred to corresponding wells of the intermediate plate, and after mixing, 5 microliters of the mixture per well was transferred to the cell plate. The plate was incubated in a CO2 incubator for 6 days.
After 6 days of co-incubation with the compounds, the plate was centrifuged to remove the medium, added with 25 microliters of Promega CellTiter-Glo reagent to each well, and incubated at room temperature for 10 minutes to stabilize the luminescence signal. Measures were read by PerkinElmer Nivo multi-marker analyzer.
The original data was converted into inhibition rate by the formula: % inhibition=((RFUCmpd−AVER(RFUNeg.Ctrl))/((AVER(RFUDay0)−AVER(RFUNeg.Ctrl))×100%. Curve fitting was conducted and IC50 was calculated.
In general terms: ATP-based viability assays read luminescence as a measure of living cells.

Another data set concerns uterine growth. Description: Uterine wet weight inhibition in immature rats. It is filed as in vivo, female immature rats. Particulars: oral, three consecutive days. The protocol:
This study was intended to evaluate the uterine growth inhibition of compounds of the present application in female immature rats aged 18-21 days (provided by Beijing Vital River Laboratory Animal Technology Co., Ltd., with the number of test animals in each experimental group being 5). In this study, 18-day-old female immature rats were given oral doses of 10 mg/kg of the compound of the present application and 0.1 mg/kg of estradiol for three consecutive days, the control group was given oral doses of 0.1 mg/kg of estradiol for three consecutive days, and the blank group was given no drugs except the corresponding vehicle. Three days after the administration, the rats were sacrificed, and the uteruses of the rats were weighed to observe the effect of the test compound on the uterine growth inhibition in rats. Inhibition rate=100*[(VehicleEE−Cpd)/(VehicleEE−Vehicle)], wherein VehicleEE is uterine wet weight in the control group (oral doses of 0.1 mg/kg estradiol); Cpd is the uterine wet weight of the treatment group; Vehicle is the uterine wet weight of rats in the blank group.

Data set [1] is described as follows: Pharmacokinetics study in mice (cassette). It is filed as in vivo. Particulars: female, Balb/c, plasma, mouse cassette PK. From the text: Objective: To determine the drug concentration in the plasma of the mice at different times after intravenous and oral administration of the test compounds by LC/MS/MS using female Balb/c mice as the test animals. To investigate the pharmacokinetic performance of the test compounds in mice and to evaluate the pharmacokinetic characteristics.
Test animals: 4 healthy female Balb/c mice were divided into 2 groups according to the principle of similar weight, 2 in the IV group and 2 in the PO group. The animals were purchased from Shanghai Lingchang Biotechnology Co., Ltd.
(§1) IV group: Appropriate amounts of compounds were weighed respectively, prepared into 2 mg/mL solutions, then mixed to give a 0.5 mg/mL solution, which was stirred and ultrasonicated until a clear state. The vehicle was 15% HP-b-CD.
(§2) PO group: An appropriate amount of the IV group solution was taken and diluted to 0.4 mg/mL with 15% HP-b-CD.
(§3) Administration: After fasting overnight, the IV group was administered intravenously, and the dose of the test compound was 1 mg/kg; the PO group was administered intragastrically, and the dose of the test compound was 2 mg/kg.
(§4) Procedures: For IV group, 30 μL of blood was collected from the saphenous vein of the female Balb/c mice at 0.0833, 0.25, 0.5, 1, 2, 4, 8, and 24 hours post-dose, and placed in a commercial anticoagulant tube with EDTA-K2 added in advance. For PO group, 30 μL of blood was collected from the saphenous vein of the female Balb/c mice at 0.25, 0.5, 1, 2, 4, 8, 12 and 24 hours post-dose, and placed in a commercial anticoagulant tube with EDTA-K2 added in advance. The blood samples were centrifuged (3,200 g, 4° C., 10 minutes) to give plasma samples, which was transferred to a pre-cooled centrifuge tube, frozen in dry ice, and stored in an ultra-low temperature freezer at −60° C. or lower until the LC-MS/MS analysis. The animals were given free access to food 4 hours after the administration. LC/MS/MS method was used to determine the content of the test compounds in the plasma of mice after intravenous and oral administration. The linear range of the method is 2.00-2000 nM.

Data set [2] is described as follows: Pharmacokinetics study in rats (cassette). The data set is classed as in vivo. Particulars: female, SD, plasma, rat cassette PK.
Source text: Experimental objective: To determine the drug concentration in the plasma of the rats at different times after intravenous and oral administration of the test compounds by LC/MS/MS using female SD rats as the test animals. To investigate the pharmacokinetic performance of the test compounds in rats and to evaluate the pharmacokinetic characteristics.
Test animals: 4 healthy female SD rats were divided into 2 groups according to according to the principle of similar weight, 2 in the IV group and 2 in the PO group. Animal used in this study were purchased from Beijing Vital River Laboratory Animal Technology Co., Ltd.
as §1, §2, §3
as §4, with “200” for “30”, “jugular” for “saphenous”, “SD rats” for “Balb/c mice”

Data set [3] concerns MCF-7 breast cancer cell xenograft. Description: In vivo efficacy, MCF-7 breast cancer xenograft. The arrangement: species or system BALB/c nude mice. Particulars: for Tumor volume 27 days after grouping: Mean ± SEM; for T/C / TGI: day 27. The protocol:
This study was intended to evaluate the anti-tumor efficacy of compounds of the present application in MCF-7 breast cancer cell xenograft BALB/c nude mice (provided by Beijing Vital River Laboratory Animal Technology Co., Ltd., with the number of test animals in each experimental group being 7).
Three days before the xenograft, the mice were inoculated with 0.36 mg of 60-day sustained-release estrogen tablets subcutaneously on the left shoulder. In the logarithmic growth phase, the cells were collected and counted. The cell density was adjusted to 10×10^7 cells/mL, added with an equal volume of Matrigel and mixed for inoculation. Each mouse was xenografted subcutaneously with 0.2 mL of MCF-7 tumor cell suspension (10×10^6) on the right shoulder. On the 14th day after tumor cell xenograft, the mice were grouped and administered the drugs once a day, with an average tumor volume of 200 mm^3 and a body weight of 22.0-23.0 g. Tumor volume and body weight were measured twice a week after grouping. The tumor growth rate (T/C) and tumor growth inhibition rate (TGI) were calculated for the last tumor measurement data on the 27th day after grouping, and the anti-tumor efficacy of the compound was evaluated by TGI (%) or relative tumor proliferation rate T/C (%). TGI (%), reflects the tumor growth inhibition rate. TGI (%)=[(1-(average tumor volume at the end of treatment in a treatment group—average tumor volume at the start of treatment in the treatment group))/(average tumor volume at the end of treatment in the solvent control group—average tumor volume at the start of treatment in the solvent control group)]×100%, relative tumor proliferation rate T/C (%)=TRTV/CRTV×100% (TRTV: average RTV in the treatment group; CRTV: average RTV in the negative control group). Relative tumor volume (RTV) was calculated based on the results of tumor measurement. The formula is RTV=Vt/V0, wherein V0 is the tumor volume measured when grouping and administering (i.e., D0), and Vt is the tumor volume at a certain measurement, the data of TRTV and CRTV should be measured on the same day.

The conditions of data set [4]: cited from earlier work.
The next data set deals with breast cancer. Particulars: intramuscular injection, breast cancer patients; cited from earlier work.
The mark [5] stands for this setting: iv, i.v. 1 mg/kg, read-out: Vdss.

As for `CC/C(=C(/c1ccc(OCCNC/C=C/C(=O)N(C)C)nc1)c1[nH]c2ccccc2c1Cl)c1ccc(F)cc1Cl` [Compound 1], the IC50 in the data set with MCF-7 cells stood at 1.41 nM. In addition, in the data set with uterine growth (10 mg/kg + estradiol 0.1 mg/kg), the Inhibition rate is given as 75% and the Uterine wet weight stood at 0.0672 g.

By AUC(0-t) is commonly meant exposure summed from dosing to a finite time, without extrapolation to infinity. A word on the clearance: it is the rate of elimination divided by the concentration. A low value points to inefficient removal. A word on the half-life: it is the time needed for the level to fall by half in the phase considered. Higher therefore signals slow decline. In general, Cmax refers to the highest concentration seen after dosing. The Tmax is the time at which the peak concentration occurs. Usually bioavailability stands for the share of a dose that reaches the circulation, judged against a reference dose that is usually intravenous. A lower bioavailability goes with poor availability. Broadly, the T/C is the result in the treated group divided by that in the control group, in per cent. Consider `CC/C(=C(/c1ccc(OCCNC/C=C/C(=O)N(C)C)nc1)c1[nH]c2ccccc2c1Cl)c1cccc(OC)c1` [Compound 4 monohydrochloride], for which, in data set [1] (iv, i.v. 1 mg/kg), the AUC(0-t) came out at 1.1 µM·h, the clearance was 26 mL/min/kg and the half-life was 1.85 h. In data set [1] (setting [5]), the Vd came out at 3.45 L/kg. Further, in data set [1] (po, p.o. 2 mg/kg), the exposure AUC(0-t) was 0.503 µM·h, the Cmax worked out at 159 nM, the Tmax was determined as 0.25 h and the bioavailability came out at 22.9%. Further, in data set [1] (po, p.o. 2 mg/kg), the half-life was 3.25 h. For the same compound, in data set [2] (iv, i.v. 1 mg/kg), the AUC(0-t) came out at 1.9 µM·h, the clearance stood at 15.8 mL/min/kg and the half-life is 3.98 h. Moreover, the Vd in data set [2] (setting [5]) amounted to 4.86 L/kg. In addition, in data set [2] (po, p.o. 2 mg/kg), the AUC(0-t) was 1.84 µM·h, the Cmax was 233 nM, the Tmax stood at 2 h and the bioavailability was 48.4%. This compound also gave a half-life in data set [2] (po, p.o. 2 mg/kg) of 3.26 h. Also, in data set [3] (3 mg/kg once a day), the “Tumor volume 27 days after grouping” value was 396 ± 58 mm^3, the T/C was 28.74% and the TGI is 83%. In data set [3] (10 mg/kg once a day), the “Tumor volume 27 days after grouping” value stood at 124 ± 5 mm^3, the T/C was 9.32% and the TGI is given as 106%.

Compound `C[C@]12CC[C@@H]3c4ccc(O)cc4CC[C@H]3[C@@H]1CC[C@@H]2O` [Estradiol, estradiol, reference compound] had a Uterine wet weight in the data set on uterine growth (estradiol alone (control group)) of 0.1200 g.

For the compound `C[C@]12CC[C@@H]3c4ccc(O)cc4C[C@@H](CCCCCCCCC[S+]([O-])CCCC(F)(F)C(F)(F)F)[C@H]3[C@@H]1CC[C@@H]2O` (stereo partly drawn) [fulvestrant], the “bioavailability via oral administration” value in data set [4] is “zero”. For the same compound, the clinical response rate entry in the data set with breast cancer is given as “about 50%”.
